{"source": "patent US20120295247A1", "about": "“PORCINE SEMINAL MATERIAL COMPOSITION FOR ARTIFICIAL INSEMINATION OF SOWS” (GENES DIFFUSION, priority 2009, published 2012)", "system": "spermatozoa present in free semen", "source_text": "In order to obtain efficient fertilization, more than 50% of the spermatozoa have to be […] (i.e. having an individual displacement velocity of more than 20 micrometers per second).\nGedil® is a diluting agent consisting of a biological medium favorable to preservation of spermatozoa."}
{"smiles": "[Ba+2].[Cl-].[Cl-]", "note": "[BaCl2, barium chloride]", "values": [{"measurement": "motility of the spermatozoa", "setting": "BaCl2 at 5 or 10% on free semen, after two days", "result": "significant reduction"}, {"measurement": "effect on essential properties (such as the motility) of porcine spermatozoa", "setting": "products present in the capsules", "result": "alter the essential properties"}, {"measurement": "toxicity (or stress) for spermatozoa", "setting": "spermatozoa diluted in media other than Gedil, addition of BaCl2", "result": "toxicity"}]}
